Results: patent publication US9505736B2, “Histone deacetylase inhibitors and compositions and methods of use thereof” (CHDI Foundation, Inc., priority 2012, dated 2016)

Assays:
[1] = tested on: cellular histone deacetylase enzymatic activity in Jurkat E6-1 cells; experiment: Inhibition of cellular HDAC activity in Jurkat E6-1 cells, Class IIa selective substrate Boc-Lys(Tfa)-AMC; format: cell-based; details: Homo sapiens
Experimental: Analysis of Inhibition of Cellular HDAC Activity with Class IIa Histone Deacetylase (HDAC) Inhibitors
After penetration in Jurkat E6-1 cells, the substrate is deacetylated to Boc-Lys-AMC. After cell lysis and cleavage by trypsin, the fluorophore AMC is released from the deacetylated substrate only. The fluoresence of the sample is directly related to the histone deacetylase activity in the sample.
Jurkat E6.1 Cell Culture and Plating.
Jurkat E6.1 cells are cultured according to standard cell culture protocols in Jurkat E6.1 Growth Media (RPMI without phenol red, 10% FBS, 10 mM HEPES, and 1 mM Sodium Pyruvate). Jurkat E6.1 cells are counted using a Coulter Counter and resuspended in Jurkat E6.1 growth media at a concentration of 75,000 cells/35 μl. 35 μl or 75,000 cells is seeded into Greiner microtitre assay plates. The plates are then incubated at 37° C. and 5% CO2 while other assay components are being prepared.
(§1) Serially Dilute HDAC Inhibitor Compounds.
(§2) Stocks of 70 μl aliquots of the 10 mM compound in DMSO are prepared and stored at −20° C. From one stock aliquot of each compound to be tested and the reference compound, a 16-point serial dilution is prepared according to Table 1 using a 125 μl 16-channel Matrix multi-channel pipette.
2 μl (200×) of each diluted solution and each control (full activity: 100% DMSO alone or full inhibition 1 mM) is stamped into V-bottom polypropylene 384-well compound plates using either the Bravo, Janus, or 12.5 μl 16-channel Matrix multi-channel pipette. Each well with the 200× compound solution is diluted 1:20 by the addition of 38 μl Jurkat assay buffer+DMSO (9.5% DMSO, RPMI without phenol red, 0.09% FBS, 9 mM Hepes, and 0.9 mM Sodium Pyruvate equilibrated to room temperature)
Prepare 5× (500 μM) Boc-Lys(Tfa)-AMC Substrate.
5× (500 μM) substrate is prepared just prior to the addition to the assay. The 5× substrate is prepared by diluting a 100 mM Boc-Lys(Tfa)-AMC in DMSO solution 1:200 by adding it drop-wise to Jurkat assay medium (RPMI without phenol red, 0.1% FBS, 10 mM Hepes, and 1 mM Sodium Pyruvate equilibrated to 37° C.) while vortexing at slow speed to prevent precipitation.
10 ml of 3× lysis buffer is prepared with 8.8 ml of 3× stock lysis buffer (50 mM Tris-HCl, pH 8.0, 137 mM NaCl, 2.7 mM KCl, 1 mM MgCl2, 1% Nonidet P40 Substitute equilibrated to room temperature) and 1.2 ml of 3 mg/ml Trypsin equilibrated to room temperature.
5 μl of each solution of 1:20 diluted compound from above is transferred to the Greiner microtitre assay plates with 75,000 cells/well using the Bravo. Cells are then incubated for 2 hours at 37° C. and 5% CO2. The assay is then started by adding 10 μl of 5× (500 μM) substrate to the assay plate using either the Bravo or 16-channel Matrix multi-channel pipette. The cells are then incubated for 3 hours at 37° C. and 5% CO2. Next, 25 μl of 3× lysis buffer is added to each well using either the 125 μl 16 channel pipette or the Bravo. The assay plate is then incubated overnight (15-16 hours) at 37° C. and 5% CO2. The following day, the plates are shaken on an orbital shaker for 1 minute at 900 rpm. Finally the top read fluorescence (Excitation: 355 nm, Emission: 460 nm) is measured using PerkinElmer EnVision.

[2] = target: human catalytic domain HDAC4 protein (Homo sapiens, UniProt P56524, A743G/DEL730-739/DEL742-742); experiment: Inhibition of HDAC4 catalytic domain enzymatic activity, Boc-Lys(Tfa)-AMC substrate, fluorescence; details: read-out: Biochemical HDAC-4 IC50
Experimental: Analysis of Inhibition of HDAC4 with Class IIa Histone Deacetylase (HDAC) Inhibitors
The substrate is deacetylated to Boc-Lys-AMC by HDAC4. Cleavage by trypsin results in the release of the fluorophore AMC from the deacetylated substrate. The fluorescence of the sample is directly related to the histone deacetylase activity in the sample.
as §1
as §2, with “60” for “70”, “pipette (Matrix Technologies Ltd).” for “pipette.”
2 μl (200×) of each diluted solution and each control (full activity: 100% DMSO alone or full inhibition 1 mM) is stamped into V-bottomed polypropylene 384-well compound plates using either the Bravo (384-well head from Agilent) or 12.5 μl 16-channel Matrix multi-channel pipette (Matrix Technologies Ltd).
Prepare HDAC4 Catalytic Domain Enzyme (0.86 μg/ml).
Prepare 5× (50 NM) Boc-Lys(Tfa)-AMC Substrate.
5× (50 μM) substrate is prepared just prior to the addition to the assay. A 1 mM substrate stock is made by diluting a 100 mM Boc-Lys(Tfa)-AMC in DMSO solution 1:100 by adding it drop-wise to assay buffer (equilibrated to room temperature) while vortexing at slow speed to prevent precipitation. The 5× substrate is prepared by diluting the 1 mM substrate solution 1:20 by adding it drop-wise to assay buffer (equilibrated to room temperature) while vortexing at slow speed to prevent precipitation.
Prepare 3× (30 NM) Developer/Stop Solution.
5 μl of each solution of 1:20 diluted compound from above is transferred to a clear bottomed, black, 384-well assay plate using the Bravo or the Janus (384-well MDT head from Perkin Elmer). Using a 16-channel Matrix multi-channel pipette, 35 μl of the working solution of HDAC4 catalytic domain enzyme (0.86 μg/ml in assay buffer) is transferred to the assay plate. The assay is then started by adding 10 μl of 5× (50 μM) substrate to the assay plates using either the Bravo, Janus or 16-channel Matrix multi-channel pipette. The assay plate is then shaken for two minutes on an orbital shaker at 900 rpm (rotations per minute). Next the plate is incubated for 15 minutes at 37° C. The reaction is stopped by adding 25 μl of 3× (30 μM) developer/stop solution to the assay plates using either the Bravo, Janus or a 16-channel Matrix multi-channel pipette. Assay plates are then shaken for 5 minutes on an orbital shaker at 1200 rpm. Next, the assay plates are incubated at 37° C. for 1 hour in a tissue culture incubator.

human catalytic domain HDAC4 protein, sequence (P56524 with tags, fused parts or gaps A743G/DEL730-739/DEL742-742): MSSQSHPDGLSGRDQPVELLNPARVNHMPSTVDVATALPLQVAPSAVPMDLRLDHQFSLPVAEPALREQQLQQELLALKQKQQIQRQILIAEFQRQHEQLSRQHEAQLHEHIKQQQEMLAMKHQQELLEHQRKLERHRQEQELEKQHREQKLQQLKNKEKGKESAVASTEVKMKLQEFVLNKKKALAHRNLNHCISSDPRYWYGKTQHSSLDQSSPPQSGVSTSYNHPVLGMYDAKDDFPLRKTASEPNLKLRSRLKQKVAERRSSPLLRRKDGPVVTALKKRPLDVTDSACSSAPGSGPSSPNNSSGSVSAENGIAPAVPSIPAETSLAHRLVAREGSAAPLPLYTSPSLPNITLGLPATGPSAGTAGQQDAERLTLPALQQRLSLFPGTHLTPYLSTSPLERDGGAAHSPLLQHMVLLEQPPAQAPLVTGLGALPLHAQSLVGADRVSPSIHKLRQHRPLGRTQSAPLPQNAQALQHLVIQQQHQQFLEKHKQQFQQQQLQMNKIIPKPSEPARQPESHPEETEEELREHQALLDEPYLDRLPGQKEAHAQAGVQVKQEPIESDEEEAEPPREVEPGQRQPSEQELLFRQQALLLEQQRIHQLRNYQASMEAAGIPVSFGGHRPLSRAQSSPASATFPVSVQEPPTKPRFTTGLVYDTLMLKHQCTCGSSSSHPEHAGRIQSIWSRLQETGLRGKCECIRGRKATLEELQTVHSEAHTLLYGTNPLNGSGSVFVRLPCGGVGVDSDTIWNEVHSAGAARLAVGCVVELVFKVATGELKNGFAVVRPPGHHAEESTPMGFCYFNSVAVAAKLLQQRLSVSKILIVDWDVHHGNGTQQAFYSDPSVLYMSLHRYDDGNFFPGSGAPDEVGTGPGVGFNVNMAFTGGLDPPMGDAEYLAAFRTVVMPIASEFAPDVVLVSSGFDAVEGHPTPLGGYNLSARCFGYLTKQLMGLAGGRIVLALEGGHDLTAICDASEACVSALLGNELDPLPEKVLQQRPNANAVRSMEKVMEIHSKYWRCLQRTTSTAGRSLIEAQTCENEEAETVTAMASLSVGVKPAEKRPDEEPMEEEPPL

| Compound | IC50 [1] [nM] | IC50 [2] [nM] |
| --- | --- | --- |
| O=C(NO)[C@@]1(F)[C@H](c2ccccc2)[C@H]1c1ccnc(C2CC2)c1 (racemic) [(1R*,2S*,3S*)-2-(2-Cyclopropylpyridin-4-yl)-1-fluoro-N-hydroxy-3-phenylcyclopropanecarboxamide] | > 50000 | > 50000 |
| O=C(NO)[C@@]1(F)[C@H](c2ccccc2)[C@H]1c1ccc(-c2cnc(C3CC3)o2)cc1 (racemic) [(1R*,2S*,3S*)-2-(4-(2-Cyclopropyloxazol-5-yl)phenyl)-1-fluoro-N-hydroxy-3-phenylcyclopropanecarboxamide] | 28000 | 4650 |
| O=C(NO)[C@@]1(F)[C@H](c2ccccc2)[C@H]1c1cc(Cl)c2c(c1)OCCO2 (racemic) [(1R*,2S*,3S*)-2-(8-Chloro-2,3-dihydrobenzo[b][1,4]dioxin-6-yl)-1-fluoro-N-hydroxy-3-phenylcyclopropanecarboxamide] | 40000 | 6470 |
| Cc1cnc(-c2ccc([C@H]3[C@H](c4ccccc4)[C@]3(Cl)C(=O)NO)cc2)nc1 [(1R,2R,3R)-1-Chloro-N-hydroxy-2-(4-(5-methylpyrimidin-2-yl)phenyl)-3-phenylcyclopropanecarboxamide] | 15300 | – |
| O=C(NO)[C@@]1(F)[C@@H](c2ccccc2)[C@@H]1c1ccc(-c2nccc(C(F)(F)F)n2)cc1 [(1R,2R,3R)-1-Fluoro-N-hydroxy-2-phenyl-3-(4-(4-(trifluoromethyl)pyrimidin-2-yl)phenyl)cyclopropanecarboxamide] | > 50000 | – |
| O=C(NO)[C@@]1(F)[C@@H](c2ccccc2)[C@@H]1c1ccc(-c2ncc(OC(F)F)cn2)cc1 [(1R,2R,3R)-2-(4-(5-(Difluoromethoxy)pyrimidin-2-yl)phenyl)-1-fluoro-N-hydroxy-3-phenylcyclopropanecarboxamide] | > 50000 | – |

These reach a lower IC50 [1]. Values come first.

| IC50 [1] [nM] | IC50 [2] [nM] | Compound |
| --- | --- | --- |
| 310 | 20 | O=C(NO)[C@]1(F)[C@H](c2ccccc2)[C@H]1c1ccc(-c2cnc(C3CC3)o2)cc1 (racemic) [(1S*,2S*,3S*)-2-(4-(2-Cyclopropyloxazol-5-yl)phenyl)-1-fluoro-N-hydroxy-3-phenylcyclopropanecarboxamide] |
| 870 | 60 | O=C(NO)[C@]1(F)[C@H](c2ccccc2)[C@H]1c1ccc(Br)cc1 (racemic) [(1S*,2S*,3S*)-2-(4-Bromophenyl)-1-fluoro-N-hydroxy-3-phenylcyclopropanecarboxamide] |
| 4500 | – | O=C(NO)[C@@]1(F)[C@@H](c2ccccc2)[C@@H]1c1ccc(-c2ncc(F)cn2)cc1 [(1R,2R,3R)-1-Fluoro-2-(4-(5-fluoropyrimidin-2-yl)phenyl)-N-hydroxy-3-phenylcyclopropanecarboxamide] |
| 8900 | – | Cc1cnc(-c2ccc([C@H]3[C@H](c4ccccc4)[C@]3(F)C(=O)NO)cc2)nc1 [(1R,2R,3R)-1-Fluoro-N-hydroxy-2-(4-(5-methylpyrimidin-2-yl)phenyl)-3-phenylcyclopropanecarboxamide] |
| 690 | 60 | O=C(NO)[C@]1(F)[C@H](c2ccccc2)[C@H]1c1cnc(-c2ccc(F)cc2)s1 [(1S,2R,3S)-1-Fluoro-2-(2-(4-fluorophenyl)thiazol-5-yl)-N-hydroxy-3-phenylcyclopropanecarboxamide] |
| 120 | – | Cc1cnc(-c2ccc([C@@H]3[C@@H](c4ccccc4)[C@@]3(F)C(=O)NO)cc2)nc1 [(1S,2S,3S)-1-Fluoro-N-hydroxy-2-(4-(5-methylpyrimidin-2-yl)phenyl)-3-phenylcyclopropanecarboxamide] |
| 260 | – | O=C(NO)[C@]1(F)[C@H](c2ccccc2)[C@H]1c1ccc(-c2nccc(C(F)(F)F)n2)cc1 [(1S,2S,3S)-1-Fluoro-N-hydroxy-2-phenyl-3-(4-(4-(trifluoromethyl)pyrimidin-2-yl)phenyl)cyclopropanecarboxamide] |
| 220 | – | O=C(NO)[C@]1(F)[C@H](c2ccccc2)[C@H]1c1ccc(-c2ncc(OC(F)F)cn2)cc1 [(1S,2S,3S)-2-(4-(5-(Difluoromethoxy)pyrimidin-2-yl)phenyl)-1-fluoro-N-hydroxy-3-phenylcyclopropanecarboxamide] |
